3 compounds from patent US20260102344A1, “METERED DOSE INHALERS AND SUSPENSION COMPOSITIONS” (Kindeva Drug Delivery L.P., priority 2021, published 2026) can be followed below.

Converted amounts (≈) assume the structure as drawn.

What all share (assay type): physicochemical
A short description of data set [1]: Saturated solubility of fluticasone propionate in HFO-1234ze(E) with ethanol. The settings on record: saturated solubility in HFO-1234ze(E), no additional excipients; for solubility: HFO-1234ze(E) propellant with ethanol, organic solvent or mixture, thermodynamic from solid. The method, then: The solubility of fluticasone propionate in each suspension was measured by content assay following filtration of the excess non-dissolved drug.

Data set [2] is described as follows: Aerodynamic particle size measurement, fluticasone propionate in HFO-1234ze(E). The settings on record: HFO-1234ze(E) suspension 2 mg/mL, 50-μL valve, 0.5 mm actuator. The procedure: Suspensions of micronized fluticasone propionate were prepared in HFO-1234ze(E). The nominal concentration of fluticasone propionate in each suspension was 2 mg/mL. A first suspension included 0% ethanol. A second suspension included 2% ethanol by weight. A third suspension included 5% ethanol by weight. A fourth suspension included 10% ethanol by weight.
Each suspension was filled into an FEP-coated canister and fitted with a 50-μL valve. The suspensions were sonicated for 10 minutes to disperse the fluticasone propionate. The suspensions were tested using a KINDEVA actuator with a 0.5 mm exit orifice diameter.
For each suspension, FPM, median mass aerodynamic diameter (MMAD), FPF, metered dose (ex-valve), and delivered dose (ex-actuator) were measured.

Data set [3] in a line: Fine particle fraction by Fast Screening Impactor (FSI), fluticasone propionate in HFO-1234ze(E) without ethanol. The settings on record: HFO-1234ze(E) suspension 2 mg/mL, no ethanol. The procedure:
A suspension of micronized fluticasone propionate was prepared in HFO-1234ze(E) with no additional excipients, including ethanol. Each suspension included an amount of fluticasone propionate (2 mg/mL) to provide a nominal dose of […]. Each suspension was filled into FEP coated canisters and crimped with a metering valve and tested with a KINDEVA actuator.
When tested with KINDEVA actuators with exit orifice diameters of 0.3 mm, 0.22 mm, and 0.18 mm using a Fast Screening Impactor (FSI), it was observed that corresponding FPF of 35%, 43%, and 50% were achieved.

The nature of data set [4]: Mometasone solubility in HFO-1234ze(E) (Example 10).
Data set [5] is described as follows: Saturated solubility, mometasone furoate in HFO-1234ze(E) (Example 11). The procedure:
Suspensions of micronized mometasone furoate were prepared in HFO-1234ze(E). […]. A second suspension included 0.5% ethanol by weight. A third suspension included 1% ethanol by weight. A fourth suspension included 2% ethanol by weight.
Devices were prepared by weighing mometasone furoate in FEP coated canisters fitted with a 50-μL valve, a Mk6s actuator, and dose counter. The valve was crimped on, and the propellant was pressure filled through the valve. The units were sonicated for 10 minutes to fully disperse the mometasone furoate. Through life dosing was tested for each suspension 3 units with the Mk6s actuator having 0.5-mm exit orifice and 0.8-mm jet length. Saturated solubility was also measured for each suspension. The results are shown in Example 10.

Data set [6] is described as follows: Delivered dose and particle size measurement, salbutamol sulfate in HFO-1234ze(E). Particulars: HFO-1234ze(E) suspension 1.91 mg/mL, nominal 100 μg/actuation, 63-μL valve, 0.4 mm actuator. The method, then: A first suspension included no ethanol. […] A fifth suspension included 15% ethanol by weight. […] Each suspension was filled into FEP coated canisters, crimped with a 63-μL valve and tested with a […] actuator having an exit orifice diameter of 0.4 mm for testing. The fine particle mass (FPM), median mass aerodynamic diameter (MMAD), fine particle fraction (FPF), metered dose (ex-valve), and delivered dose (ex-act) were measured for each suspension.

The nature of data set [7]: Delivered dose and fine particle mass, salbutamol sulfate in HFO-1234ze(E) with 5.0% or 15% ethanol. The settings on record: HFO-1234ze(E) suspension 1.91 mg/mL, 63-μL APTAR, mean of triplicate. The procedure:
Each suspension was filled into FEP coated canisters, crimped with a valve, and coupled to […] actuator for testing. Fine particle mass and delivered dose were measured for each suspension.

As to `CCC(=O)O[C@]1(C(=O)SCF)[C@H](C)C[C@H]2[C@@H]3C[C@H](F)C4=CC(=O)C=C[C@]4(C)[C@@]3(F)[C@@H](O)C[C@@]21C` [fluticasone propionate], the solubility (commonly the concentration that dissolves in the medium under given conditions) in data set [1] (ethanol 0% by weight) is 3.2 µg/mL (≈ 6.39 µM); in data set [1] (ethanol 2% by weight), 30.3 µg/mL (≈ 60.5 µM); in data set [1] (ethanol 5% by weight) it was 135 µg/mL (≈ 269 µM). The results for the “Mean fluticasone propionate solubility” value in data set [1] (ethanol 1% by weight) and in data set [1] (ethanol 10% by weight) were 0.0124 mg/mL and 0.3675 mg/mL, respectively. Moreover, the FPF in data set [2] (ethanol 0% by weight) turned out to be 60.6%; in data set [2] (ethanol 2% by weight), 43.8%; in data set [2] (ethanol 5% by weight) it was 28.9%; in data set [2] (ethanol 10% by weight) it was 19.6%; in data set [3] (actuator exit orifice 0.18 mm), 50%; in data set [3] (actuator exit orifice 0.22 mm), 43%. In addition, the FPF in data set [3] (actuator exit orifice 0.3 mm) was 35%. For the same compound, the FPM is 5.3 μg/actuation in data set [2] (ethanol 0% by weight), 30.0 μg/actuation in data set [2] (ethanol 2% by weight), 27.9 μg/actuation in data set [2] (ethanol 5% by weight) and 18.7 μg/actuation in data set [2] (ethanol 10% by weight). Also, the MMAD is recorded as 5.0 μm in data set [2] (ethanol 0% by weight), 5.4 μm in data set [2] (ethanol 2% by weight), 2.4 μm in data set [2] (ethanol 5% by weight) and 2.1 μm in data set [2] (ethanol 10% by weight).
Turning to `C[C@@H]1C[C@H]2[C@@H]3CCC4=CC(=O)C=C[C@]4(C)[C@@]3(Cl)[C@@H](O)C[C@]2(C)[C@@]1(OC(=O)c1ccco1)C(=O)CCl` [mometasone furoate], the Mean mometasone solubility in data set [4] (ethanol 0% by weight) turned out to be 0.8 µg/mL; in data set [4] (ethanol 1% by weight) it was 7.6 µg/mL. The results for the Saturated solubility in data set [5] (ethanol 0%) and in data set [5] (ethanol 2%) were 0.8 µg/mL and 7.6 µg/mL, respectively.
Consider salbutamol sulfate, for which the “FPF (fine particle fraction)” value in data set [6] (ethanol 0% by weight) is recorded as 57.5%; in data set [6] (ethanol 2% by weight) it was 48.5%; in data set [6] (ethanol 5% by weight) it was 39.1%; in data set [6] (ethanol 10% by weight) it was 27.6%; in data set [6] (ethanol 15% by weight) it was 19.6%. Further, the “FPM (fine particle mass)” value is given as 45.3 μg/act in data set [6] (ethanol 0% by weight); 45.9 μg/act in data set [6] (ethanol 2% by weight); 36.8 μg/act in data set [6] (ethanol 5% by weight); 25.4 μg/act in data set [6] (ethanol 10% by weight); 18.5 μg/act in data set [6] (ethanol 15% by weight). Besides, the “MMAD (median mass aerodynamic diameter)” value was found to be 1.9 μm in data set [6] (ethanol 0% by weight); 2.0 μm in data set [6] (ethanol 2% by weight); 1.9 μm in data set [6] (ethanol 5% by weight); 2.0 μm in data set [6] (ethanol 10% by weight); 2.0 μm in data set [6] (ethanol 15% by weight). The Fine particle fraction is given as 38% in data set [7] (ethanol 5.0%) and 20% in data set [7] (ethanol 15%).
